Several values for one entry are separate records, joined by “and”; a condition that tells them apart may be missing. Equal values may be shown once. Toxic doses and inconclusive results are not listed.
Test system: BDF1 mice, P388 leukemia ip, median survival T/C
Assay: NCI In Vivo Anticancer Drug Screen. Data for tumor model P388 Leukemia (intraperitoneal) in B6D2F1 (BDF1) mice
Details: endpoint: median survival time, higher = longer survival
In short: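 Steps: implant the tumour, treat one group with compound and another with vehicle, record survival, then divide treated by control.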

[1] = dose: 50.0 mg/kg/injection, schedule: Q01DX009 (ip), vehicle: saline with Tween-80
[2] = dose: 100.0 mg/kg/injection, schedule: Q01DX009 (ip), vehicle: saline with Tween-80
[3] = dose: 100.0 mg/kg/injection, schedule: Q04DX003 (ip), vehicle: saline with Tween-80
[4] = dose: 200.0 mg/kg/injection, schedule: Q01DX009 (ip), vehicle: saline with Tween-80
[5] = dose: 200.0 mg/kg/injection, schedule: Q04DX003 (ip), vehicle: saline with Tween-80
[6] = dose: 400.0 mg/kg/injection, schedule: Q04DX003 (ip), vehicle: saline with Tween-80
[7] = dose: 12.5 mg/kg/injection, schedule: Q01DX009 (ip), vehicle: saline with Tween-80
[8] = dose: 25.0 mg/kg/injection, schedule: Q01DX009 (ip), vehicle: saline with Tween-80
[9] = dose: 100.0 mg/kg/injection, schedule: Q01DX009 (ip), vehicle: Klucel (hydroxypropylcellulose) (HPC)
[10] = dose: 6.25 mg/kg/injection, schedule: Q01DX009 (ip), vehicle: saline with Tween-80
[11] = dose: 12.5 mg/kg/injection, schedule: Q04DX003 (ip), vehicle: saline with Tween-80
[12] = dose: 25.0 mg/kg/injection, schedule: Q04DX003 (ip), vehicle: saline with Tween-80
[13] = dose: 50.0 mg/kg/injection, schedule: Q04DX003 (ip), vehicle: saline with Tween-80
[14] = dose: 37.5 mg/kg/injection, schedule: Q01DX009 (ip), vehicle: saline with Tween-80
[15] = dose: 75.0 mg/kg/injection, schedule: Q01DX009 (ip), vehicle: saline with Tween-80

## O=C(Nc1ccc(NC(=O)Nc2cccc(C3=NCCCN3)c2)cc1)Nc1ccc(C2=NCCCN2)cc1
dose: 6.6 mg/kg/injection, schedule: Q01DX009 (ip), vehicle: saline with Tween-80
  T/C: 154 % of control
dose: 10.0 mg/kg/injection, schedule: Q01DX009 (ip), vehicle: saline with Tween-80
  T/C: 181 % of control

## COc1cc(/C=N/N=C(\N)N[N+](=O)[O-])cc(OC)c1OC
dose: 100.0 mg/kg/injection, schedule: Q01DX001 (ip), vehicle: saline with Tween-80
  T/C: 90 % of control
dose: 200.0 mg/kg/injection, schedule: Q01DX001 (ip), vehicle: saline with Tween-80
  T/C: 90 % of control
dose: 400.0 mg/kg/injection, schedule: Q01DX001 (ip), vehicle: saline with Tween-80
  T/C: 90 % of control

## CC(O)C(=O)Oc1ccccc1 (configuration not stated)
dose: 100.0 mg/kg/injection, schedule: Q01DX009 (ip), vehicle: saline
  T/C: 90 % of control
dose: 200.0 mg/kg/injection, schedule: Q01DX009 (ip), vehicle: saline
  T/C: 109 % of control

## CC(=O)N1C(=O)NC(=O)C1(C)c1cccs1 (configuration not stated)
[1]
  T/C: 109 % of control
[2]
  T/C: 111 % of control
[3]
  T/C: 100 % of control
[4]
  T/C: 109 % of control
[5]
  T/C: 90 % of control
[6]
  T/C: 90 % of control

## C/C=C/C(=O)OCCC[N+](C)(C)C
dose: 0.09 mg/kg/injection, schedule: Q01DX009 (ip), vehicle: saline
  T/C: 95 % of control
dose: 0.19 mg/kg/injection, schedule: Q01DX009 (ip), vehicle: saline
  T/C: 92 % of control
dose: 0.39 mg/kg/injection, schedule: Q01DX009 (ip), vehicle: saline
  T/C: 96 % of control and 109 % of control
dose: 0.78 mg/kg/injection, schedule: Q01DX009 (ip), vehicle: saline
  T/C: 96 % of control and 101 % of control
dose: 1.56 mg/kg/injection, schedule: Q01DX009 (ip), vehicle: saline
  T/C: 96 % of control and 111 % of control
dose: 3.12 mg/kg/injection, schedule: Q01DX009 (ip), vehicle: saline
  T/C: 100 % of control and 105 % of control
dose: 6.25 mg/kg/injection, schedule: Q01DX009 (ip), vehicle: saline
  T/C: 92 % of control

## Nc1nc2c(ncn2C2CC(O)C(CO)O2)c(=O)n1N (configuration not stated)
[7]
  T/C: 97 % of control
[8]
  T/C: 111 % of control
[1]
  T/C: 108 % of control
[2]
  T/C: 101 % of control

## CCC(NC(N)=O)C(CC)NC(N)=O (configuration not stated)
[8]
  T/C: 106 % of control
[1]
  T/C: 120 % of control and 123 % of control

## CCCCCCCCCCCCCCCCNCCO
dose: 50.0 mg/kg/injection, schedule: Q01DX009 (ip), vehicle: Klucel (hydroxypropylcellulose) (HPC)
  T/C: 110 % of control
[9]
  T/C: 112 % of control

## CCCCOc1ccc(C(=O)NN)cc1
[10]
  T/C: 118 % of control
dose: 6.25 mg/kg/injection, schedule: Q04DX003 (ip), vehicle: saline with Tween-80
  T/C: 100 % of control
[7]
  T/C: 108 % of control
[11]
  T/C: 91 % of control and 92 % of control
[8]
  T/C: 99 % of control
[12]
  T/C: 90 % of control and 106 % of control
[1]
  T/C: 115 % of control
[13]
  T/C: 97 % of control and 98 % of control
[2]
  T/C: 97 % of control

## O=c1[nH]cnc2ccc(Cl)cc12
[14]
  T/C: 92 % of control
dose: 37.5 mg/kg/injection, schedule: Q04DX003 (ip), vehicle: saline with Tween-80
  T/C: 92 % of control
[15]
  T/C: 96 % of control

## c1ccc(-c2ncnc3c2Cc2ccccc2-3)cc1
[2]
  T/C: 104 % of control
[3]
  T/C: 100 % of control
[4]
  T/C: 104 % of control
[5]
  T/C: 100 % of control
dose: 400.0 mg/kg/injection, schedule: Q01DX009 (ip), vehicle: saline with Tween-80
  T/C: 91 % of control
[6]
  T/C: 109 % of control

## COc1ccc2[nH]c(-c3ccccc3)c(-c3ccccc3)c2c1
[8]
  T/C: 95 % of control
[1]
  T/C: 90 % of control
[2]
  T/C: 90 % of control

## O=C(Nc1cccc(C2=NCCN2)c1)c1ccc(C(=O)Nc2cccc(C3=NCCN3)c2)c(Cl)c1
dose: 1.0 mg/kg/injection, schedule: Q01DX010 (ip), vehicle: water
  T/C: 100 % of control
dose: 2.0 mg/kg/injection, schedule: Q01DX010 (ip), vehicle: water
  T/C: 100 % of control
dose: 4.0 mg/kg/injection, schedule: Q01DX010 (ip), vehicle: water
  T/C: 100 % of control

## C=[CH][Sn]([CH]=C)([CH]=C)[O]C(C)=O
dose: 1.56 mg/kg/injection, schedule: Q01DX009 (ip), vehicle: Klucel (hydroxypropylcellulose) (HPC)
  T/C: 101 % of control
dose: 1.56 mg/kg/injection, schedule: Q04DX003 (ip), vehicle: Klucel (hydroxypropylcellulose) (HPC)
  T/C: 91 % of control
dose: 3.12 mg/kg/injection, schedule: Q01DX009 (ip), vehicle: Klucel (hydroxypropylcellulose) (HPC)
  T/C: 101 % of control and 109 % of control
dose: 3.12 mg/kg/injection, schedule: Q04DX003 (ip), vehicle: Klucel (hydroxypropylcellulose) (HPC)
  T/C: 92 % of control
dose: 6.25 mg/kg/injection, schedule: Q01DX009 (ip), vehicle: Klucel (hydroxypropylcellulose) (HPC)
  T/C: 110 % of control and 117 % of control
dose: 6.25 mg/kg/injection, schedule: Q04DX003 (ip), vehicle: Klucel (hydroxypropylcellulose) (HPC)
  T/C: 94 % of control and 101 % of control
dose: 12.5 mg/kg/injection, schedule: Q01DX009 (ip), vehicle: Klucel (hydroxypropylcellulose) (HPC)
  T/C: 153 % of control and 160 % of control
dose: 12.5 mg/kg/injection, schedule: Q01DX009 (ip), vehicle: saline
  T/C: 153 % of control and 162 % of control
dose: 12.5 mg/kg/injection, schedule: Q04DX003 (ip), vehicle: Klucel (hydroxypropylcellulose) (HPC)
  T/C: 104 % of control and 106 % of control
dose: 25.0 mg/kg/injection, schedule: Q01DX009 (ip), vehicle: saline
  T/C: 86 % of control

## COC(=O)C1C(=O)COC1C (configuration not stated)
dose: 12.5 mg/kg/injection, schedule: Q01DX005 (ip), vehicle: saline with Tween-80
  T/C: 109 % of control
dose: 25.0 mg/kg/injection, schedule: Q01DX005 (ip), vehicle: saline with Tween-80
  T/C: 112 % of control
dose: 50.0 mg/kg/injection, schedule: Q01DX005 (ip), vehicle: saline with Tween-80
  T/C: 110 % of control

## CCOc1ccccc1NC1=C(OC)C(=O)C(Nc2ccccc2OCC)=C(OC)C1=O
[9]
  T/C: 100 % of control
dose: 100.0 mg/kg/injection, schedule: Q04DX003 (ip), vehicle: Klucel (hydroxypropylcellulose) (HPC)
  T/C: 91 % of control
dose: 200.0 mg/kg/injection, schedule: Q01DX009 (ip), vehicle: Klucel (hydroxypropylcellulose) (HPC)
  T/C: 95 % of control
dose: 200.0 mg/kg/injection, schedule: Q04DX003 (ip), vehicle: Klucel (hydroxypropylcellulose) (HPC)
  T/C: 91 % of control and 100 % of control
dose: 400.0 mg/kg/injection, schedule: Q01DX009 (ip), vehicle: Klucel (hydroxypropylcellulose) (HPC)
  T/C: 100 % of control
dose: 400.0 mg/kg/injection, schedule: Q04DX003 (ip), vehicle: Klucel (hydroxypropylcellulose) (HPC)
  T/C: 86 % of control

## CCCCCC(C)C(=O)CCCC (configuration not stated) (tested in a mixture with another compound)
[13]
  T/C: 104 % of control
[3]
  T/C: 104 % of control
[5]
  T/C: 100 % of control

## OCCN1CCN(CCCN2c3ccccc3Sc3ccc(C(F)(F)F)cc32)CC1
dose: 0.31 mg/kg/injection, schedule: Q01DX009 (ip), vehicle: saline
  T/C: 86 % of control
dose: 0.62 mg/kg/injection, schedule: Q01DX009 (ip), vehicle: saline
  T/C: 90 % of control
dose: 0.82 mg/kg/injection, schedule: Q01DX009 (ip), vehicle: saline
  T/C: 86 % of control
dose: 1.25 mg/kg/injection, schedule: Q01DX009 (ip), vehicle: saline
  T/C: 113 % of control
dose: 12.5 mg/kg/injection, schedule: Q04DX003 (ip), vehicle: saline
  T/C: 105 % of control

## ClC(Cl)(Cl)C(Cl)(Cl)c1ccc(C(Cl)(Cl)C(Cl)(Cl)Cl)cc1
dose: 18.75 mg/kg/injection, schedule: Q01DX009 (ip), vehicle: saline with Tween-80
  T/C: 100 % of control
[14]
  T/C: 100 % of control
[15]
  T/C: 100 % of control
dose: 100.0 mg/kg/injection, schedule: Q04DX003 (ip), vehicle: saline sonified
  T/C: 100 % of control
[4]
  T/C: 92 % of control
dose: 400.0 mg/kg/injection, schedule: Q04DX003 (ip), vehicle: saline sonified
  T/C: 95 % of control

## NNC(=O)c1ccc(Cl)c(Cl)c1
[10]
  T/C: 113 % of control
[7]
  T/C: 86 % of control
[11]
  T/C: 98 % of control
[8]
  T/C: 89 % of control
[12]
  T/C: 107 % of control
[1]
  T/C: 104 % of control
[13]
  T/C: 107 % of control
dose: 100.0 mg/kg/injection, schedule: Q01DX001 (ip), vehicle: saline sonified
  T/C: 91 % of control
[2]
  T/C: 97 % of control
[3]
  T/C: 107 % of control
dose: 200.0 mg/kg/injection, schedule: Q01DX001 (ip), vehicle: saline sonified
  T/C: 100 % of control
[5]
  T/C: 107 % of control

From PubChem BioAssay AID328 (DTP/NCI, 2004)
